Read-outs that look alike come from different tables or passages of the source.
Tests used:
Tyk2 kinase domain (DH1) = Tyk2 kinase domain (DH1) (Homo sapiens (Human), UniProt P29597); test: Tyk2 Radioactive Kinase Assay; type: biochemical; details: for inhibition at 10 µM: read-out: Tyk2 JH1% Inhibition @ 10 μM
Procedure, shortened: (§1)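 Compounds were tested at a single concentration of 10 μM in a radiometric kinase format against each isolated kinase domain. Activity is reported as percent inhibition at that concentration.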

JAK2 kinase domain (JH1) = JAK2 kinase domain (JH1) (Homo sapiens (Human), UniProt O60674); test: JAK2 Radioactive Kinase Assay; type: biochemical; details: for inhibition at 10 µM: read-out: JAK2 JH1% Inhibition @ 10 μM
Procedure, shortened: as §1

[1] = target: Tyk2/JAK2 (heterodimeric complex) (Homo sapiens (Human), UniProt P29597); test: IL-12 Induced pSTAT4 in Human PBMC; type: cell-based; details: 1.7 ng/mL IL-12
Source text: The IL-12 Induced pSTAT4 assay evaluates the inhibition of IL-12 induced STAT4 phophorylation mediated by Tyk2/JAK2 (heterodimeric complex).

[2] = target: human TYK2 (JH2domain-pseudokinase) (Homo sapiens (Human), UniProt P29597); test: TYK2 JH2 Domain Binding Assay (KINOMEscan)
Procedure, shortened: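 Competition binding of a DNA-tagged fusion of human TYK2 JH2 pseudokinase (G556–D888) with NFkB DNA-binding domain, from HEK293 extracts (<0.1 nM final), against immobilised ligand beads; 1 h shaking at room temperature, 0.9% DMSO. Bound kinase quantified by qPCR.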

[3] = target: JAK2/JAK2 homdimeric complex (Homo sapiens (Human), UniProt O60674); test: GM-CSF Induced pSTAT5 in Human PBMC; type: cell-based; details: GM-CSF 5 ng/mL for 20 minutes, pSTAT5 by MSD, read-out: PBMC_GMCSF_pSTAT5 IC50
Sequence of JAK2/JAK2 homdimeric complex (O60674 whole entry): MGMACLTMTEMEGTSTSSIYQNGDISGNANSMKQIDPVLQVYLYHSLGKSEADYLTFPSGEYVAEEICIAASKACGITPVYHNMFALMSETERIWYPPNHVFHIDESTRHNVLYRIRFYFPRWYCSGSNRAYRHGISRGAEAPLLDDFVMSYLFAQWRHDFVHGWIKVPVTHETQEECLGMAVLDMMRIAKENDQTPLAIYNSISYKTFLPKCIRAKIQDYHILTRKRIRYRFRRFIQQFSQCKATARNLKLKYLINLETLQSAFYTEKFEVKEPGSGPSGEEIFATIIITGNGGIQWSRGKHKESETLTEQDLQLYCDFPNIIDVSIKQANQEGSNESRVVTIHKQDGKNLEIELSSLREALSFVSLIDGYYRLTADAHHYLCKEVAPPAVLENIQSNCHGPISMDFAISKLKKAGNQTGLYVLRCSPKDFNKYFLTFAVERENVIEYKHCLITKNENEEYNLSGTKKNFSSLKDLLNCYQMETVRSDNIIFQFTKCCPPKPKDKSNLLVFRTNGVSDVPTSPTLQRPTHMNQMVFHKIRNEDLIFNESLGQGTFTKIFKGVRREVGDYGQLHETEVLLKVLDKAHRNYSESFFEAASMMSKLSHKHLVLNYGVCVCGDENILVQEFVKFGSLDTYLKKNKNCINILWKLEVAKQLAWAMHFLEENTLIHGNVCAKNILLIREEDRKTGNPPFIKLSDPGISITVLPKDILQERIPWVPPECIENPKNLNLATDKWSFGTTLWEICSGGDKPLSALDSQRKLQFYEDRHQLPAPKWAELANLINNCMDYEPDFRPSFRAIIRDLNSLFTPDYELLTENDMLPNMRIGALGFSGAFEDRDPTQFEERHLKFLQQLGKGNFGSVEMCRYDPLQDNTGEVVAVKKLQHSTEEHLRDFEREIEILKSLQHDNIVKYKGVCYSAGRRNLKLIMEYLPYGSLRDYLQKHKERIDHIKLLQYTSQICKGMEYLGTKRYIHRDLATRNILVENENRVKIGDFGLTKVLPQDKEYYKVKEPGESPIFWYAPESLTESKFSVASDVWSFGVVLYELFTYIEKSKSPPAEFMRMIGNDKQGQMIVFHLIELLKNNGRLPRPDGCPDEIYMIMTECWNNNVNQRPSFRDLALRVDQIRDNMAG
Sequence of JAK2/JAK2 homdimeric complex (P32927 17-897 partner): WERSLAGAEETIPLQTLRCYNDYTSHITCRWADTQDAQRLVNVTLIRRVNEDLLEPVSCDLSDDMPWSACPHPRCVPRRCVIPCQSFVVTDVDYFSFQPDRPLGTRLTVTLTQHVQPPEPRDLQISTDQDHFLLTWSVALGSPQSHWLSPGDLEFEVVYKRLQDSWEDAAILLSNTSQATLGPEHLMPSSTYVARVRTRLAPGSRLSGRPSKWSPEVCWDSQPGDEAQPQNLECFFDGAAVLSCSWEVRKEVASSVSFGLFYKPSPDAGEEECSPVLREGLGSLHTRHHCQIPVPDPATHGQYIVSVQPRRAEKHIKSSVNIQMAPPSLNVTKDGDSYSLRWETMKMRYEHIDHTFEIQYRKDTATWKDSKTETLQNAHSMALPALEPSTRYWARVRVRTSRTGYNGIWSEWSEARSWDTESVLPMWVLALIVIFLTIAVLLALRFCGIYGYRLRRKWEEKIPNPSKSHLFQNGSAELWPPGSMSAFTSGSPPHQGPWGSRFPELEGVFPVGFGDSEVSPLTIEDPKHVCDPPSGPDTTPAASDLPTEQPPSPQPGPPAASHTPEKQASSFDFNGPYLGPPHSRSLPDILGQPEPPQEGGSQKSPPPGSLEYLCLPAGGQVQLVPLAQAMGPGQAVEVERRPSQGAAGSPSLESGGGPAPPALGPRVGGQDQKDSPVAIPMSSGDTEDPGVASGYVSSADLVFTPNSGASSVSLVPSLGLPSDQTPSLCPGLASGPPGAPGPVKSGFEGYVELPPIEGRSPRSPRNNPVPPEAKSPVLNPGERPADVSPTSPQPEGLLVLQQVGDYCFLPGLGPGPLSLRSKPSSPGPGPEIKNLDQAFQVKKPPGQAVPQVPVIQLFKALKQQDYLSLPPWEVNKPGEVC

Sequence of Tyk2 kinase domain (DH1) (P29597 897-1176): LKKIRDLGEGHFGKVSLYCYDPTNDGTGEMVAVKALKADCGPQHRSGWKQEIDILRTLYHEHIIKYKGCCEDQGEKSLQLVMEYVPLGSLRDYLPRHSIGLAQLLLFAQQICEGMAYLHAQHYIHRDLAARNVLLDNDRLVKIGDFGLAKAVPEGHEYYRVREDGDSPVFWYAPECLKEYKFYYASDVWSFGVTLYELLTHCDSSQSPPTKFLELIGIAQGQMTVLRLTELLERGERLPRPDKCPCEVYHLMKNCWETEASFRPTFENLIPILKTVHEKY
Sequence of Tyk2/JAK2 (heterodimeric complex) (P29597 whole entry, other chains not shown): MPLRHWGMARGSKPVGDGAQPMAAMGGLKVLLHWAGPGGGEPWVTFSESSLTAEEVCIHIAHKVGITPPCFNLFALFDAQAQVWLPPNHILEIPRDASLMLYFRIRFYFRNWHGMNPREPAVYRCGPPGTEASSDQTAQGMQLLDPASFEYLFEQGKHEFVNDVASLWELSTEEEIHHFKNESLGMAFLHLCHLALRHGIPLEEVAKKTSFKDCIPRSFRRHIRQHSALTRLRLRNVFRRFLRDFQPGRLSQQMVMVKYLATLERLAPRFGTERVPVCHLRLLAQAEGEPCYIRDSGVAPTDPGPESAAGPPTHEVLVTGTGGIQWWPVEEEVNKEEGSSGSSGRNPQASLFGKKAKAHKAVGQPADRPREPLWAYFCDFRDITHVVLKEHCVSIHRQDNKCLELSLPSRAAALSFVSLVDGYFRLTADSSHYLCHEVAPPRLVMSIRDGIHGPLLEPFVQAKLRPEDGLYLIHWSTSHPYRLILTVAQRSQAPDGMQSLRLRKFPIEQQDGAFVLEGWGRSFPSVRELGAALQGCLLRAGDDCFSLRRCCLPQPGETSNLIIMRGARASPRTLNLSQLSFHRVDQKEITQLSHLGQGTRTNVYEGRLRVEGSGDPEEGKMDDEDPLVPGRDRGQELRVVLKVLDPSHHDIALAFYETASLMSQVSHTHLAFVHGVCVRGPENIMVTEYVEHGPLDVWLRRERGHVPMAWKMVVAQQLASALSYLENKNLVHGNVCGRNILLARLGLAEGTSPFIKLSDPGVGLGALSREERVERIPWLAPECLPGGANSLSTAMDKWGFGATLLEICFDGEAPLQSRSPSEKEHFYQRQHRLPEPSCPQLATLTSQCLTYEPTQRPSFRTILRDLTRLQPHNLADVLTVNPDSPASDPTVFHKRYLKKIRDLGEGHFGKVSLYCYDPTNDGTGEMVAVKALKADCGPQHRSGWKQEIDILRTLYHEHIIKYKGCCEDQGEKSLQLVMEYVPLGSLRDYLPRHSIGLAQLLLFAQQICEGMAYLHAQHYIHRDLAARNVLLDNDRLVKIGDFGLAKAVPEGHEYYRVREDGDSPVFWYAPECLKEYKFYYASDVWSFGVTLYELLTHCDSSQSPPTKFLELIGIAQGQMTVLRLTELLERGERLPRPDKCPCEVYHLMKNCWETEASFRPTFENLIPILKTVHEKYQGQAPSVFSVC
Sequence of human TYK2 (JH2domain-pseudokinase) (P29597 556-888): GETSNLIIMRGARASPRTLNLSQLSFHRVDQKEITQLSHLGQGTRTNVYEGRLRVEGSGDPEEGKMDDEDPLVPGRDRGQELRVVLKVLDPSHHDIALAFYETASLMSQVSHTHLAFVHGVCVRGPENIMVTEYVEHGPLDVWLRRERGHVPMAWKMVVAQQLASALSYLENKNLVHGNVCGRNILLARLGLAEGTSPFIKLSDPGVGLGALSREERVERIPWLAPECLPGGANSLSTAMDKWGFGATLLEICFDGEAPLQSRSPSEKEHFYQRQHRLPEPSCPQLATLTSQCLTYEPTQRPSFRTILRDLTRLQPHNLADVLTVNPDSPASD
Sequence of JAK2 kinase domain (JH1) (O60674 849-1124): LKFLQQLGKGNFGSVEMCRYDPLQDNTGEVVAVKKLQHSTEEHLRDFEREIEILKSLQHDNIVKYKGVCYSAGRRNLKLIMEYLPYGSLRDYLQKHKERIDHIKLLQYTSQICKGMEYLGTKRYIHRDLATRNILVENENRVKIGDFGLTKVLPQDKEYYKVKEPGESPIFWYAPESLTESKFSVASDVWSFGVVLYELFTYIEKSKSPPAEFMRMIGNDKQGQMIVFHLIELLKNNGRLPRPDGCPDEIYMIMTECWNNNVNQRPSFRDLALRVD

SMILES | inhibition at 10 µM (Tyk2 kinase domain (DH1); compound at 10 μM, ATP 10 μM) [%] | inhibition at 10 µM (JAK2 kinase domain (JH1); compound at 10 μM, ATP 10 μM) [%] | IC50 [1] [nM] | Kd [2] [nM] | IC50 [3] [nM] | Tyk2 JH1% Inhibition @ 10 μM (Tyk2 kinase domain (DH1); compound at 10 μM, ATP 10 μM) | JAK2 JH1% Inhibition @ 10 μM (JAK2 kinase domain (JH1); compound at 10 μM, ATP 10 μM) | inhibition at 10 µM (Tyk2 kinase domain (DH1); 10 μM compound, 10 μM ATP) [%] | inhibition at 10 µM (JAK2 kinase domain (JH1); 10 μM compound, 10 μM ATP) [%]
CNc1cc(Nc2cccn(-c3ccc(F)cc3)c2=O)nc2c(C(N)=O)cnn12 [I-9] | < 50 | < 50 | 100 to 500 | < 0.2 | – | – | – | – | –
CNc1cc(Nc2cccc(C)c2Cl)nc2c(C(N)=O)cnn12 [I-14] | – | – | < 100 | < 0.2 | > 50000 | – | – | – | –
CNc1cc(Nc2cccn([C@@H]3CCCOC3)c2=O)nc2c(C(=O)NC3CC3)cnn12 [I-351] | < 50 | < 50 | < 100 | < 0.2 | – | – | – | – | –
CNc1cc(Nc2cccn([C@H]3CC[C@@](C)(O)CC3)c2=O)nc2c(C(=O)N[C@H]3C[C@H]3F)cnn12 [I-370] | < 50 | < 50 | < 100 | < 0.2 | – | – | – | – | –
CNc1cc(Nc2cccn([C@H]3CC[C@](C)(O)CC3)c2=O)nc2c(C(=O)NC3CC3)cnn12 [I-371] | < 50 | < 50 | 100 to 500 | < 0.2 | – | – | – | – | –
CNc1cc(Nc2cccn([C@H]3CC[C@](C)(O)CC3)c2=O)nc2c(C(=O)N[C@H]3C[C@H]3F)cnn12 [I-372] | < 50 | < 50 | < 100 | < 0.2 | – | – | – | – | –
CNc1cc(Nc2cccnc2OC2CC2)nc2c(C(=O)N[C@H]3CC[C@@H]3O)cnn12 [I-397] | – | – | < 100 | – | > 50000 | A (percent inhibition at 10 μM lower than 50) | A (percent inhibition at 10 μM lower than 50) | – | –
CNc1cc(Nc2cccn(-c3nn(C)cc3C)c2=O)nc2c(C(=O)NC3CC3)cnn12 [I-404] | < 50 | < 50 | > 1000 | 0.2 to 1 | – | – | – | – | –
CNc1cc(Nc2cccn(-c3nn(C)cc3C)c2=O)nc2c(C(=O)N[C@H]3C[C@H]3F)cnn12 [I-405] | < 50 | < 50 | 100 to 500 | 0.2 to 1 | – | – | – | – | –
[2H]C([2H])([2H])Oc1ncccc1Nc1cc(NC)n2ncc(C(=O)NC3CC4(COC4)C3)c2n1 [I-417, 5-((2-(methoxy-d3)pyridin-3-yl)amino)-7-(methylamino)-N-(2-oxaspiro[3.3]heptan-6-yl)pyrazolo[1,5-a]pyrimidine-3-carboxamide] | < 50 | < 50 | 100 to 500 | – | > 50000 | – | – | – | –
CNc1cc(Nc2cccc(C3CCCOC3)n2)nc2c(C(=O)N[C@@H]3C[C@@H]3F)cnn12 (stereo partly shown) [I-522] | – | – | < 100 | < 0.2 | > 50000 | – | – | – | –
CNc1cc(Nc2cccn([C@@H]3CCC[C@H](OC)C3)c2=O)nc2c(C(=O)NC3CC3)cnn12 [I-621] | – | – | < 100 | – | > 50000 | A (percent inhibition at 10 μM lower than 50) | A (percent inhibition at 10 μM lower than 50) | – | –
CNc1cc(Nc2cccn(-c3nc(C)co3)c2=O)nc2c(C(=O)N[C@@H]3CC[C@@H]3O)cnn12 [I-706] | – | – | < 100 | – | > 50000 | A (percent inhibition at 10 μM lower than 50) | A (percent inhibition at 10 μM lower than 50) | – | –
CNc1cc(Nc2cccc3ocnc23)nc2c(C(=O)N[C@H]3COC[C@H]3O)cnn12 [I-834] | – | – | 100 to 500 | – | > 50000 | – | – | < 50 | < 50
CNc1cc(-c2cn(CCN3CCCCC3)c3ncccc23)nc2c(C(=O)N[C@@H]3CC[C@H]3O)cnn12 [I-837] | – | – | < 100 | – | > 12500 | – | – | < 50 | < 50
CNc1cc(Nc2cccc3ocnc23)nc2c(C(=O)N[C@@H]3CC[C@H]3O)cnn12 [I-857] | – | – | 100 to 500 | – | > 50000 | – | – | < 50 | < 50
CNc1cc(Nc2cccn([C@H]3CCC[C@@H](OC)C3)c2=O)nc2c(C(=O)NCC(C)(C)CO)cnn12 [I-861] | – | – | < 100 | < 0.2 | – | – | – | < 50 | < 50
CNc1cc(Nc2cccn(-c3ncccc3F)c2=O)nc2c(C(=O)O)cnn12 [I-893, 5-((3′-fluoro-2-oxo-2H-[1,2′-bipyridin]-3-yl)amino)-7-(methylamino) pyrazolo[1,5-a]pyrimidine-3-carboxylic acid] | – | – | > 1000 | 1 to 10 | – | – | – | < 50 | < 50
CNc1cc(Nc2cccn([C@H]3CCCN(CCF)C3)c2=O)nc2c(C(=O)N[C@@H]3C[C@@H]3F)cnn12 [I-900] | – | – | < 100 | < 0.2 | – | – | – | < 50 | < 50
CNc1cc(Nc2cccn([C@H]3CC[C@@H]3O)c2=O)nc2c(C(=O)N[C@@H]3C[C@@H]3F)cnn12 [I-916] | – | – | < 100 | – | > 50000 | – | – | < 50 | < 50
CNc1cc(Nc2cccn(C3CCCCC3)c2=O)nc2c(C(=O)N[C@@H]3CC[C@H]3O)cnn12 [I-943] | – | – | < 100 | – | > 50000 | – | – | < 50 | < 50

— patent US10508120B2, “TYK2 inhibitors and uses thereof” (Nimbus Lakshmi, Inc., priority 2017, dated 2019)
